This assay deals with C3H10T½ cells. Format: cell-based, murine.

With `NC(=O)NO` [HU, hydroxyurea], the “Type X collagen synthesis” value is recorded as “induces type X collagen synthesis”.

The values are drawn from patent US7067251B2 (priority 2000, dated 2006).
